Experimental data reported in PubChem BioAssay AID624129 (Sanford-Burnham Center for Chemical Genomics, 2012).
Active and inactive are the calls of the source. The rule behind the calls is not given here.

Legend:
Assay in all cases: potency against CXCR6 with APJ panel – cell-based, beta-arrestin, DiscoveRx, uHTS hits, dose response (AID 624129)
[1] = molecular target: Apelin receptor (Homo sapiens) (UniProt P35414); conditions: CXCR6 beta-arrestin (DiscoveRx) antagonist cell assay, APJ
[2] = molecular target: Beta-galactosidase (Escherichia coli) (UniProt Q8VNN2); conditions: CXCR6 beta-arrestin (DiscoveRx) antagonist cell assay, b-galactosidase
[3] = molecular target: C-C chemokine receptor type 6 (Homo sapiens) (UniProt P51684); conditions: CXCR6 beta-arrestin (DiscoveRx) antagonist cell assay
[4] = molecular target: C-X-C chemokine receptor type 6 (Homo sapiens) (UniProt O00574); conditions: CXCR6 beta-arrestin (DiscoveRx) antagonist cell assay; for inhibition: CXCR6, run 1, dose range 2, at 80 µM (top of the series)
[5] = dose range 1, mean IC50 across replicates
[6] = CCR6, dose range 1, mean IC50 across replicates
[7] = CXCR6, dose range 1, mean IC50 across replicates

Chain of Beta-galactosidase (Escherichia coli) (Q8VNN2 whole entry, looked up): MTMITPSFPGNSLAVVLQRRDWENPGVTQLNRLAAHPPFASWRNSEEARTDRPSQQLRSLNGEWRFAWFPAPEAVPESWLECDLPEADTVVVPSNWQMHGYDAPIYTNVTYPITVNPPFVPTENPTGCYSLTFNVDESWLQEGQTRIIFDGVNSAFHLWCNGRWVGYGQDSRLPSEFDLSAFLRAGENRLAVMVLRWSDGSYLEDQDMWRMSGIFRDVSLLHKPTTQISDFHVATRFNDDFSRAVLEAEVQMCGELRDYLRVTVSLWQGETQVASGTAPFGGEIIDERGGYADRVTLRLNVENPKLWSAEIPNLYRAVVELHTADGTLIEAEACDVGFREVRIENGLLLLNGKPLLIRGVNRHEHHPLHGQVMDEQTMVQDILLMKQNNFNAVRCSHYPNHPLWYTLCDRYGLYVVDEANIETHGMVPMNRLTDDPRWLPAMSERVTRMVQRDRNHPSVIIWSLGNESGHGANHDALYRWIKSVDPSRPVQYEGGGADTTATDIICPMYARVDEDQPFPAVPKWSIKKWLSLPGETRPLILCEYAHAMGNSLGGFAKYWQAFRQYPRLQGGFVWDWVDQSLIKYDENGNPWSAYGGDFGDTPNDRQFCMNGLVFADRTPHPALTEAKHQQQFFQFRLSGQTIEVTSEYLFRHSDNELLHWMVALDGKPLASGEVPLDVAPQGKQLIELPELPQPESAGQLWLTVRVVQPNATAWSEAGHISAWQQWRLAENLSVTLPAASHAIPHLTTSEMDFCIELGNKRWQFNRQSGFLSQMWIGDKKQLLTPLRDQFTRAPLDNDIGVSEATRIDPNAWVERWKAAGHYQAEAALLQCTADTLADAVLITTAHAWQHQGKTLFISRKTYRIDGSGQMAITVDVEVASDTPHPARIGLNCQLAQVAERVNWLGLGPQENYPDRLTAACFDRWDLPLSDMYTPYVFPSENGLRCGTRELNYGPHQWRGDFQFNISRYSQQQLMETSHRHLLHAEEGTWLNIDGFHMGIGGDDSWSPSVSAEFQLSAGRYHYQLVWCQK
Chain of C-X-C chemokine receptor type 6 (Homo sapiens) (O00574 whole entry, looked up): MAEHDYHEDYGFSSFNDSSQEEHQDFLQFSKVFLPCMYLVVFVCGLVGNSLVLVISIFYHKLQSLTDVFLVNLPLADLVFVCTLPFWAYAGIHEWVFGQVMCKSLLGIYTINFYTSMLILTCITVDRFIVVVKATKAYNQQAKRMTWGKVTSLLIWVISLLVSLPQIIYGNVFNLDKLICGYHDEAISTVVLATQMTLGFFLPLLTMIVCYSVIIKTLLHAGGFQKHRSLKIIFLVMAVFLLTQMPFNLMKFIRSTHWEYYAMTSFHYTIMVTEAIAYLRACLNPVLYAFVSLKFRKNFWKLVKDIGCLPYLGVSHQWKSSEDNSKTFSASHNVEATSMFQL

Row | IC50 [1, 5] [µM] | IC50 ([1]; run 2, dose range 1) [µM] | IC50 ([1]; run 3, dose range 1) [µM] | IC50 ([2]; dose range 1) | IC50 [2, 5] [µM] | IC50 [3, 6] [µM] | IC50 ([3]; CCR6, run 2, dose range 1) [µM] | IC50 ([4]; CXCR6, dose range 1) | IC50 [4, 7] [µM] | inhibition [4] [%] | IC50 ([4]; CXCR6, run 2, dose range 1) [µM] | IC50 ([1]; dose range 1) | IC50 ([3]; CCR6, dose range 1) | IC50 ([4]; CXCR6, run 1, dose range 2) [µM] | IC50 ([4]; CXCR6, run 2, dose range 2) [µM] | Structure (SMILES)
1 | > 80 | > 80 | > 80 | > 80 µM (inactive) | > 80 | > 80 | > 80 | > 80 µM (inactive) | > 80 | -36.3 | > 80 |  |  |  |  | O=[N+]([O-])c1ccc(S(=O)Cc2ccccc2)c([N+](=O)[O-])c1 (stereo unspecified)
2 | > 80 | > 80 | > 80 | > 80 µM (inactive) | > 80 | > 80 | > 80 | > 80 µM (inactive) | > 80 | 19.9 | > 80 |  |  |  |  | N#CC(C#N)=C1C=CC=CN1/C(=C\c1ccco1)C(=O)c1ccc(Br)cc1
3 | > 80 | > 80 | > 80 | > 80 µM (inactive) | > 80 | > 80 | > 80 | 13.5 µM | 10.7 |  | 10.7 | > 80 µM (inactive) | > 80 µM (inactive) | 12.3 | 6.07 | COc1cc(C(=O)NC2CC3CCCC(C2)N3CC(=O)Nc2ccccc2)cc(OC)c1OC (stereo unspecified)
4 | 19.1 | 20.7 | 21.4 | > 80 µM (inactive) | > 80 | 12.9 | 12.9 | inactive | 14.4 | 131 | 13.1 | 15.3 µM | 13 µM |  |  | COc1cc(/C=C/c2ccc3cccc(O)c3n2)ccc1O
5 | 14.4 | 15.4 | 13.6 | > 80 µM (inactive) | > 80 | 8.82 | 8.44 | 13.7 µM | 10.7 |  | 8.84 | 14.2 µM | 9.21 µM | 9.08 | 11.3 | CC(=O)Nc1ccc(Sc2ccc([N+](=O)[O-])o2)cc1
6 | 23.7 | 21.8 | 35.4 | > 80 µM (inactive) | > 80 | 10.2 | 11.4 | inactive | 11.4 |  | 17.8 | 13.8 µM | 9.02 µM | 4.08 | 4.99 | CC(C)N=C1CCCC1C(=S)SSC(=S)C1CCCC1=NC(C)C (stereo unspecified)
7 | > 80 | > 80 | > 80 | > 80 µM (inactive) | > 80 | > 80 | > 80 | > 80 µM (inactive) | > 80 | -73 | > 80 |  |  |  |  | COc1ccc(C(=O)/C=C/C(=O)N(CC(=O)NC2CCCCC2)Cc2cccs2)c(O)c1
8 | 13.1 | 15.7 | 9.95 | 8.42 µM | 8.42 | 9.2 | 9.91 | inactive | 12.3 |  | 14 | 13.5 µM | 8.5 µM | 10.9 | 7.56 | COc1ccc(C)c(-n2c(=O)n(Cc3ccccc3)c(=O)c3[nH]cnc32)c1
9 | 12 | 9.32 | 19.6 | > 80 µM (inactive) | > 80 | 2.25 | 2.52 | 3.04 µM | 4.66 |  | 10.9 | 7.16 µM | 1.99 µM | 2.25 | 2.44 | C/C(=N\NC(=O)C(c1ccccc1)c1ccccc1)c1ccccn1
